# In US20260234634A1, “UNG/UDG INHIBITION IN BRCA-ASSOCIATED CANCER” (INSTITUT CURIE, priority 2023, published 2026):
# B1: UGI: peptide inhibitor of UNG, delivered by retroviral particles (protein, UniProt P14739 1-84, looked up)
# Uracil-DNA glycosylase …: MTNLSDIIEKETGKQLVIQESILMLPEEVEEVIGNKPESDILVHTAYDESTDENVMLLTSDAPEYKPWALVIQDSNGENKIKML
# Assays:
# Type in all cases: cell-based
# NMNAT1−/− RPE-1 cells = test: 12-day clonogenic survival assay, NMNAT1 knockout cells; conditions: for IC50: calculated IC50, NMNAT1−/− cells; for sensitivity of NMNAT1−/− cells relative to WT cells: drugs targeting the TS pathway; for Fold change (WT/NMNAT1−/−): ratio of IC50 WT to IC50 NMNAT1−/−
# Description: (§1) a. Top, Immunoblot profiling of WT and NMNAT1^−/− RPE-1 cells for the indicated proteins. Bands corresponding to UNG1 (lower MW) and UNG2 (higher MW) are indicated. […] Cells were treated for 24 hours with the indicated doses of FdUrd, with and without 5 μM TAS-114. Bottom, Cell cycle distribution of WT (+/+) and NMNAT1^−/− (−/−) RPE-1 cells treated as in (top) (n=2). b. Quantification of gDNA-uracil and DNA breaks by modified comet assay with (right) and without (left) recombinant UNG (rUNG) respectively, in WT RPE-1 cells upon 24-hour FdUrd treatment with and without 5 μM TAS-114. Results are shown as tail moment. At least 80 comets per condition was measured using CometScore. […] The enzymes involved are indicated in bold and italic. Bottom, Immunoblot profiling of NMNAT1, ADP-ribosylation (PAR) and PARP1 (short and long exposures) in WT and NMNAT1^−/− cells complemented or not with wild type (WT) or catalytically-dead mutant (MUT) NMNAT1 (W169A). PARP1 was detected after membrane stripping of the anti-ADP ribosylation antibody. Cells were treated or not with PDD 00017273 (PARGi, 10 μM) for 2 hours and 10 mM MMS was added the last 10 minutes before cell lysis. Vinculin was used as loading control. d. Quantification of the 12-day clonogenic survival assay of the same cells as in (c, bottom) treated or not with the indicated doses of rucaparib (PARPi) for the duration of the experiment (n=3). e. Quantification of the 12-day clonogenic survival assay in WT (black) and NMNAT1^−/− (red) cells following exposure to the indicated doses of the indicated DNA-damaging drugs (n=3). f. Quantification of the 12-day clonogenic survival assay in WT, NMNAT1^−/−, and UNG^−/− cells following 24-hour exposure to the indicated doses of FdUrd with or without 5 μM TAS-114 (n=3). g. Quantification of the 12-day clonogenic survival assay in WT (black), NMNAT1^−/−, and UNG^−/− cells following 24-hour exposure to the indicated doses of TAS-114. (n=3). For WT cells, data are the same as in (FIG. 14c). h. Top, RT-qPCR quantification of DUT mRNA levels following 72-hour transfection of WT RPE-1 cells with DUT siRNA (siDUT) or relative control (siCTRL). Results are represented as fold change over siCTRL. (Bottom), Quantification of the 12-day clonogenic survival assay in WT (left), NMNAT1^−/− (middle), and UNG^−/− (right) cells following transfection with DUT siRNA and relative control (siCTRL). Data were expressed as a percentage (mean±s.e.m.) of colonies formed in each cell line relative to the appropriate siCTRL (n=3). i. Quantification of gDNA-uracil and DNA breaks as in (b) in WT and NMNAT1^−/− cells upon 0.08 μM FdUrd treatment with and without 5 μM TAS-114 for 24 hours.
# (§2) To investigate the mechanism underlying the interplay between UNG and SMUG1, the inventors investigated the role of nuclear NAD^+ (nicotinamide adenine dinucleotide), a molecule with essential—yet poorly characterized—functions in DNA repair. In the nucleus of mammalian cells NAD^+ is synthesized by NMNAT1 (nicotinamide mononucleotide adenylyltransferase 1) and fuels the activity of PARP1 and sirtuins (FIG. 15c). The inventors generated NMNAT1 knockout (NMNAT1^−/−) RPE-1 cells and evaluated their sensitivity to a panel of DNA damaging agents (Table 1).
# WT RPE-1 cells = test: 12-day clonogenic survival assay, WT cells; conditions: for IC50: calculated IC50, WT cells
# Description: as §1, §2
# [1] = test system: BRCA2−/−-derived PARPi-resistant RPE-1 cells; test: Clonogenic formation, PARPi-resistant BRCA2 knockout cells; conditions: 0.5 mM inhibitor
# Description: (§3) FIG. 7. a, Clonogenic formation of wild type (WT) and BRCA2−/− (clones C1 and C2) following exposure to the indicated doses of SIRT6 inhibitor OSS_128167. b, Clonogenic formation of wild type (WT), BRCA2−/− (clones C1 and C2) and BRCA2−/−-derived PARPi-resistant RPE-1 cells following exposure to 0.5 mM SIRT6 inhibitor OSS_128167. c, Clonogenic formation of parental and derived PARPi-resistant CAPAN-1 clones following exposure to the indicated doses of SIRT6 inhibitor OSS_128167. The normal breast epithelial cells MCF10A were included as an HR-proficient cell line.
# [2] = test system: BRCA2−/− RPE-1 cells (clones C1 and C2); test: Clonogenic formation / survival assay, BRCA2 knockout clones
# Description: as §3
# a. Quantification (top) and representative image (bottom right) of the 12-day clonogenic survival assay in WT and BRCA2^−/− cells following transduction with viral particles carrying either pLentiCRISPRv2 Neo_UNG gRNA (UNG gRNA) or relative control (CTRL gRNA) (n=3). Cells were seeded for clonogenic assay after selection with G418. Bottom left, Immunoblot analysis of UNG after G418 selection. b. […] Right, qPCR-based quantification of UNG activity in the same cell lines as in (left). c. […] Right, immunoblot analysis of UNG in the same samples as in (left). The arrows indicate UNG1 (lower) and UNG2 (upper). Vinculin was used as a loading control. d. […] Left, Quantification (left) and representative images (right) of the 12-day clonogenic survival assay in WT and NMNAT1^−/− cells complemented or not (EV, empty vector) with wild-type (WT) or catalytically-dead mutant (MUT:W169A) NMNAT1 cDNA following transfection with siBRCA2 (n=3). f. Quantification of the 12-day clonogenic survival assay in the HR-deficient cancer cell lines CAPAN1 (BRCA2 mutated) and OVCAR8 (BRCA1 promoter hypermethylation) following transfection with siUNG #7 (n=3). g. Quantification (left) and representative images (right) of the 12-day clonogenic survival assay in a panel of HR-proficient and HR-deficient cancer and normal (MCF10A) cell lines following transfection with siNMNAT1 (n=3).
# MCF10A cells = test: Clonogenic formation, normal breast epithelial cells; conditions: same doses as for the CAPAN-1 clones
# Description: as §3
# [3] = test system: PARPi-resistant CAPAN-1 clones; test: Clonogenic formation, PARPi-resistant CAPAN-1 clones; conditions: indicated doses
# Description: as §3
# [4] = test system: cells lacking either NMNAT1 or UNG; test: γH2AX foci formation (DSB) by immunofluorescence; conditions: 24 h treatment, EdU-positive cells
# Description: FIG. 11. Uracil excision is regulated by nuclear NAD^+. a. Quantification of post-replicative ssDNA gaps using DNA fiber assay in P53^−/− RPE-1 cells after 48-hours transfection with the indicated siRNAs. b. Schematic of 2′-deoxyuridine (dUTP)/thymidine (dTTP) biosynthetic pathway. The biological processes involved are in italic. c. Nuclear fractionation and immunoblot profiling of the indicated proteins following 24-hour drug exposure (0.1 μM FdUrd+5 μM TAS-114) of WT and UNG^−/− cells. For the washed-out samples (w.o.), cells were harvested 24 hours after drug removal. Western blot images are representative of three experiments. d. Left, quantification of DNA breaks (left, − rUNG) and gDNA-uracil (right, + rUNG) in wild type (WT) and NMNAT1^−/− cells upon 24-hour FdUrd treatment (20 μM) and the indicated hours after drug washout (w.o.). […] Right, Quantification of UNG protein level captured as in (left) normalized over captured PCNA and H3. f. Quantification of γH2AX foci formation before and after 24 h treatment of WT (grey) and NMNAT1^−/− (orange) cells with the indicated doses of TAS-114 (μM). g. Quantification (left) and representative images (right) of 12-day clonogenic survival assay following transfection with siRNAs and drug treatment of WT and NMNAT1^−/− cells as indicated. […]
# a. […] Mass spectrometry-based quantification of the indicated metabolites (n=3). c. […]
Molecule,IC50 (NMNAT1−/− RPE-1 cells) [µM],Fold change (WT/NMNAT1−/−) (NMNAT1−/− RPE-1 cells),IC50 (WT RPE-1 cells) [µM],further results
CN(Cc1cnc2nc(N)nc(N)c2n1)c1ccc(C(=O)N[C@@H](CCC(=O)O)C(=O)O)cc1 [MTX],8.8,12.75,112,sensitivity of NMNAT1−/− cells relative to WT cells (NMNAT1−/− RPE-1 cells): more sensitive than WT cells
OO [H202],22.1,1.03,22.8,
"O=c1[nH]c(=O)n([C@H]2C[C@H](O)[C@@H](CO)O2)cc1F [FDURD, 5-fluorodeoxyuridine]",,2.92,,"IC50 (NMNAT1−/− RPE-1 cells; Homo sapiens, RPE-1): 17.7 µM; sensitivity of NMNAT1−/− cells relative to WT cells (NMNAT1−/− RPE-1 cells): more sensitive than WT cells; IC50 (WT RPE-1 cells; Homo sapiens, RPE-1): 51.6 µM"
O=C(Nc1ccc(O)c(C(=O)O)c1)c1cccc(NC(=O)c2ccco2)c1 [OSS_128167],,,,"clonogenic formation [1]: killed the PARPi-resistant BRCA2−/− RPE-1 cells to a similar extent than the parental drug-naïve cells; clonogenic ability ([2]; BRCA2−/− RPE-1 cells, indicated doses): impaired the clonogenic ability; clonogenic ability (MCF10A cells): did not affect the clonogenic ability; survival of parental HRP cells (WT RPE-1 cells; parental HRP RPE-1 cells, indicated doses): no effect on the survival; clonogenic formation [3]: resulted in cell death"
C[C@@H](NS(=O)(=O)CCCOCn1ccc(=O)[nH]c1=O)c1cccc(OC2CCCC2)c1 [TAS-114],,,,"survival upon pharmacological inhibition of DUT (NMNAT1−/− RPE-1 cells; 24-hour exposure): decreased survival; sensitivity of BRCA2−/− cells upon UNG depletion ([2]; siUNG, 1 μM TAS-114, rescued by knockdown of SMUG1): sensitized; DSB formation (γH2AX foci) [4]: triggered DNA double-strand break (DSB) formation exclusively during DNA replication"
"NC(=O)NO [HU, hydroxyurea]",637,2.46,1570,
COS(C)(=O)=O [MMS],130,1.86,242,
B1,,,,"clonogenic survival upon UNG inhibition ([2]; retroviral particles carrying UGI, versus WT cells): selectively kills"
